Reference: patent US6372208B1, “Method of reducing an immune response to a recombinant virus” (The Trustees of the University of Pennsylvania, priority 1996, dated 2002)

How the values were obtained:
[1] = system: adenovirus (H5.010CMVlacZ); experiment: Neutralizing antibody to adenovirus in serum; type: in vivo, C57BL/6 mice; conditions: IL-12 i.p., liver-directed
Excerpt: Mice from each group were subsequently euthanized and liver tissues evaluated for lacZ expression by X-gal histochemistry (magnification ×100) at day 3 and day 28; and for ALP expression by histochemical staining at day 31 (magnification ×100). Development of neutralizing antibody to adenovirus in each group of mice was examined in serum samples obtained at day 28.
Serum samples were also collected at days 0, 3, 7, 14, 21, 28, 35 and 42 from each group of animals and assayed for neutralizing antibody titer. Serum samples were incubated at 56° C. for 30 minutes and then diluted in DMEM in twofold steps starting from 1:20. Each serum dilution (100 μl) was mixed with H5.010CMVlacZ (2×10^6 pfu in 20 μl), incubated for 1 hour at 37° C., and applied to 80% confluent Hela cells in 96-well plates (2×10^4 cells per well). After 60 minutes incubation at 37° C., 100 μl of DMEK containing 20% FBS were added to each well. Cells were fixed and stained for β-galactosidase expression on the following day. All of the cells stained blue in the absence of serum samples. […] FIGS. 3A-3D report the antibody titer expressed as a function of days post-infection.

[2] = system: human Ad5 recombinant vector; experiment: Neutralizing antibody to adenovirus in BAL (Hela cell lacZ transduction); type: in vivo, C57BL/6 mice; conditions: day 28, versus control mice
Description: BAL samples obtained from animals 28 days after primary exposure to recombinant virus were evaluated for neutralizing antibodies to adenovirus and anti-adenovirus antibody isotypes as follows. The same four groups of C57BL/6 mice, i.e., control, CD4^+ depleted, IL-12 treated and IFN-γ treated, were infected with H5.010BALP. Neutralizing antibody was measured in serially-diluted BAL samples (100 μl) which were mixed with H5.010CBlacZ (1×10^6 pfu in 20 μl), incubated for 1 hour at 37° C., and applied to 80% confluent Hela cells in 96 well plates (2×10^4 cells per well). After 60 minutes of incubation at 37° C., 100 μl of DMEM containing 20% FBS was added to each well. Cells were fixed and stained for β-galactosidase expression the following day.
The results are shown graphically in FIGS. 1A through 1C, which summarize neutralizing antibody titer, and the relative amounts (OD405) of IgG and IgA present in BAL samples.

H5.010CMVlacZ virus = experiment: Adenovirus-specific IgG1 and IgG2a in serum by ELISA; type: in vivo, C57BL/6 mice; conditions: 28 days after infection
Description: A. Serum samples obtained from the C57BL/6 mice (“B6”) and IL-12 treated C57BL/6 (“B6+IL12”) mice of Example 5 were tested 28 days after infection for adenovirus-specific IgG1 and IgG2a antibody isotypes.
A solid phase enzyme linked immunosorbent assay (ELISA) using purified H5.010CMVlacZ virus as antigen was performed. Immunolon-2-U microtiter plates (Fisher) were coated with 200 ng/well of viral antigen in […] of PBS for 6 hours at 37° C., washed three times in PBS, and blocked in PBS/1% BSA overnight at 4° C. The following day, 4-fold serial diluted serum samples were added to antigen-coated plates and incubated for 4 hours at 37° C. Plates were washed three times in PBS/1% BSA and incubated with goat anti-mouse IgG1-biotin or goat anti-mouse IgG2a-biotin (CALTAG Laboratories, San Francisco, Calif.) at 1:5000 dilution for 2 hours at 37° C. Plates were washed as above and Avidin-ALP (Sigma) was added to each well at 1:5000 dilution for 1 hour at 37° C. Wells were again washed as above and PNPP substrate was added. Optical densities were read on a Biorad model 450 microplate reader.

HT-2 cells = experiment: IL-2/IL-4 in supernatants of virus-restimulated MLN lymphocytes, HT-2 cell 3H-thymidine incorporation; type: cell-based, C57BL/6 mice
Description: (§1) Lymphocytes from MLN of the control group and IL-12 treated group of C57BL/6 mice were harvested 28 days after administration of H5.010CBALP and restimulated in vitro with UV-inactivated H5.010CMVlacZ at 10 particles/cell for 24 hours. Cell-free supernatants were assayed for the presence of IL-2 or IL-4 on HT-2 cells (an IL-2 or IL-4-dependent cell line) [Yang I, cited above]. Presence of IFN-γ in the same lymphocyte culture supernatant was measured on L929 cells as described [Yang I, cited above]. Stimulation index (S.I.) was calculated by dividing ^3H-thymidine cpm incorporated into HT-2 cells cultured in supernatants of lymphocytes restimulated with virus by ^3H-thymidine cpm incorporated into HT-2 cells cultured in supernatants of lymphocytes incubated in antigen-free medium.

[3] = system: recombinant adenoviruses H5.010CBALP and H5.010CMVlacZ; experiment: Liver-directed adenovirus gene transfer and readministration (Example 3); type: in vivo, C57BL/6 mice
Description: Experiments substantially identical to those described in Example 2 above were conducted in which viral vectors were administered into the blood for introduction of the transgene into the liver (rather than intratracheal delivery into the lung).
Female C57BL/6 mice (6-8 weeks old) were injected with suspensions of H5.010CBALP (1×10^9 pfu in 50 μl of PBS) i.p. at day 0 and similarly with H5.010CMVlacZ at day 28. One group of such mice was used as a control. Another group of mice was acutely depleted of CD4^+ cells by i.p. injection of antibody to CD4^+ cells (GK1.5; ATCC No. TIB207, 1:10 dilution of ascites) at the time of the initial gene therapy (days −3, 0, and +3). A third group of mice was injected with IL-12 (2 μg, i.p. injections) at the time of the first administration of virus (days 0 and +1). A fourth group of mice was injected with gamma interferon (2 μg, i.p. injections) at the time of the first administration of virus (days 0 and +1) .
When mice were subsequently euthanized and necropsied at days 3, 28, or 31, liver tissues were prepared for cryosections according to the procedures used above for lung tissue in Example 2.
The cryosection results were substantially similar for liver-directed gene therapy according to this method as for the lung-directed therapy of Example 2 above. The results described below were obtained from the alkaline phosphatase histochemical stains (magnification ×100) or β-galactosidase X-gal stains (magnification ×100).

L929 cells = experiment: IFN-γ in the same lymphocyte culture supernatant measured on L929 cells; type: cell-based, C57BL/6 mice; conditions: MLN lymphocytes day 28, restimulated with virus
Description: as §1

Substance: interleukin-12 [IL-12]
- reduction in neutralizing antibody [1]: 3 fold
- reduction of neutralizing antibody in BAL [2]: 20 fold
- anti-viral IgG1 in serum (H5.010CMVlacZ virus): less anti-viral IgG1
- anti-viral IgG2a in serum (H5.010CMVlacZ virus): increased production of IgG2a
- 3H-Thymidine Incorporation (cpm ± SD), Medium (HT-2 cells; MLN lymphocytes 28 days after H5.010CBALP, antigen-free medium): 247 ± 34 cpm
- 3H-Thymidine Incorporation (cpm ± SD), H5.010CMVlacZ (HT-2 cells; MLN lymphocytes day 28, restimulated with UV-inactivated H5.010CMVlacZ 24 hours): 5203 ± 28 cpm
- 3H-Thymidine Incorporation (cpm ± SD), H5.010CMVlacZ (HT-2 cells; as E2, with anti-IL2 (1:5000)): 776 ± 50 cpm
- 3H-Thymidine Incorporation (cpm ± SD), H5.010CMVlacZ (HT-2 cells; as E2, with anti-IL4 (1:5000)): 4608 ± 52 cpm
- ratio of IL-2/IL-4 (HT-2 cells; lymphocytes stimulated in vitro with virus, 3 without IL-12): 6
- S.I. (stimulation index) (HT-2 cells; virus restimulated / antigen-free medium): 21.07
- S.I. (stimulation index) (HT-2 cells; with anti-IL2 (1:5000)): 3.14
- S.I. (stimulation index) (HT-2 cells; with anti-IL4 (1:5000)): 18.66
- transgene expression after first administration of virus (ALP) ([3]; liver, days 3 and 28): diminished after about one month
- gene transfer upon second administration of virus (lacZ) ([3]; liver, readministered day 28, read day 31): some gene transfer to the liver via the blood was achieved
- neutralizing antibodies ([3]; liver-directed gene therapy, Example 3): the level of neutralizing antibody was reduced
- [formula] (column head not readable; IFN-γ in supernatant) (L929 cells): 160
